{
  "source": "patent US7792576B2",
  "about": "“Method of treatment for central nervous system injury” (Purdue Research Foundation, priority 2002, dated 2010)",
  "key": {"[1]": {"system": "ascending and descending axons of transected spinal cord white matter in adult guinea pig", "test": "Anterograde intracellular labeling of spinal cord white matter axons: axonal projections relative to the plane of transection (Study One)", "type": "in vivo", "procedure": "A laminectomy procedure exposing the dorsal aspect of the spinal cord was performed on all animals between T9 and T11. A right lateral hemisection was performed (FIG. 1) using a special cutting device, and further confirmed to be “complete” (that is, leaving no spared parenchyma) by passing a sharpened pin through the cut tissue. This operation severs the entire right side of the cord from the midline to the far right border of the spinal cord forming a rostral and caudal segment. The entire left side of the spinal cord was left intact. Immediately after transection, a marker device made of surgical stainless steel was inserted into the lesion, as previously described in Borgens et al. (1986) J. Comp. Neurol 250, 168-180 and Borgens and Bohnert (1997) Exp. Neurol. 145, 376-389. This device was left in situ for the duration of the study, and removed prior to histological processing. This procedure leaves a hole in the tissue, which accurately marks the exact plane of transaction even in chronic injuries many months old (FIGS. 1 and 2). The injection of various intracellular labels into guinea pig spinal cord white matter has been described in numerous previous publications. See, for example, Borgens et al. (1986) J Comp Neurol 250, 168-180 and Borgens et al. (1999) Journal of Neurotrauma 16, 639-57. Briefly, approximately 18 hours prior to the sacrifice of the animal, the spinal cord was exposed by surgery, and approximately […], of a fluorescently labeled dextran was injected using a Hamiliton syringe. The label (50% in distilled water; 10,000 Daltons) was injected deep into the parenchyma of white matter, approximately two vertebral segments rostral and caudal of the plane of transection (usually still visible, due to the indwelling marker device). A FITC conjugated dextran (“Flouro-emerald”) was injected rostral to the plane of transection, and a rhodamine-conjugated dextran (“Flouro-ruby”) was injected caudal to the plane of transaction. Thus, this anterograde double label technique marked both ascending fibers (mostly sensory afferent fibers) projecting towards the lesion from below it and descending axons (mainly motor fibers) projecting towards the lesion from above it). Longitudinal horizontal sections provided histological samples in which the entire extent of projection of a single axon often can be traced to fall short of, or regenerate to, around, or through the plane of transection. This procedure can sometimes provide dramatic examples of single unit axon degeneration and regeneration. However, it is not productive to attempt to count individual axons in longitudinal horizontal sections. Often axons take tortuous and curving trajectories, and would be counted more than once in individual histological samples. Additionally, sprouting and branching of fibers can lead to false counting relative to the extended growth from the stump of an individual severed fiber. Rather, the proportion of animals in which axons can be traced to terminate more than 250 μms from the plane of transaction (exactly identified by use of the indwelling marker), within 250 μms of the actual plane of transaction, and to cross the exact plane of transection into the adjacent segment of cord is compared. […] Images from an Olympus Van Ox microscope were obtained with an Optronics DEI-750 color video camera and captured to a PC with Adobe Twain 32 software. Table 1, below, provides the numbers of spinal cords that were injected with the intracellular label (N) and those that were lost to histology (LTH) for each of the three groups. The proportions of those cords in which marked fibers were traced to the four zones are given over the number of cords examined. Statistical Comparison between the groups is provided at the bottom of the graph (Fishers' exact two tailed test). […] Table 1 summarizes the results of anterograde filling of both ascending and descending tracts within the spinal cords of all animals in the Study One, of chronically injured animals. […]"}, "[2]": {"system": "retinal ganglion cells", "conditions": "administered in vitro to retinal ganglion cells; U.S. Pat. No. 6,440,455 and Benowitz et al. 1999; cited from earlier work"}, "[3]": {"system": "CTM reflex after right lateral hemisection of the spinal cord in adult guinea pig", "test": "Behavioral recovery of the cutaneous trunci muscle (CTM) reflex after chronic spinal cord injury (Study One)", "type": "in vivo", "source_text": "Fully adult (approximately 400 grams (g)) female guinea pigs were used in this study (Hartley Strain). They were anesthetized with ketamine/xylyzine by conventional methods (Borgens et al. (2002) J. Exp. Biol. 205, 1-12) prior to surgery, kept warm with heat lamps after surgery, and maintained individually in pens and fed ad libidum for the duration of the investigation. Animals were euthanized at the end of the study, prior to the harvesting of spinal cords for anatomical study by an overdose of the anesthesia (see Borgens et al. (2002) J. Exp. Biol. 205, 1-12).\nA laminectomy procedure exposing the dorsal aspect of the spinal cord was performed on all animals between T9 and T11. A right lateral hemisection was performed (FIG. 1) using a special cutting device, and further confirmed to be “complete” (that is, leaving no spared parenchyma) by passing a sharpened pin through the cut tissue. This operation severs the entire right side of the cord from the midline to the far right border of the spinal cord forming a rostral and caudal segment. The entire left side of the spinal cord was left intact. Immediately after transection, a marker device made of surgical stainless steel was inserted into the lesion, as previously described in Borgens et al. (1986) J. Comp. Neurol 250, 168-180 and Borgens and Bohnert (1997) Exp. Neurol. 145, 376-389. […]"}},
  "data": [
    {"smiles": "OC[C@H]1O[C@@H](n2cnc3c(O)ncnc32)[C@H](O)[C@@H]1O", "note": "[Inosine, inosine]", "values": [
      {"measurement": "Descending fibers, Zone 4: proportion of cords", "setting": "[1]; FITC-labeled descending fibers projecting into the adjacent segment of cord, over number of cords examined", "result": "1/8"},
      {"measurement": "Descending fibers, Zone 3: proportion of cords", "setting": "[1]; FITC-labeled descending fibers terminating at the plane of transection, over number of cords examined", "result": "2/8"},
      {"measurement": "Descending fibers, Zone 1 >250: cords with labeled fibers", "setting": "[1]; FITC-labeled descending fibers terminating more than 250 μm from the plane of transection, chronic SCI", "result": 8},
      {"measurement": "Descending fibers, Zone 2 <250: proportion of cords", "setting": "[1]; FITC-labeled descending fibers within 250 μm of the plane of transection, over number of cords examined", "result": "7/8"},
      {"measurement": "Ascending fibers, Zone 4: proportion of cords", "setting": "[1]; rhodamine-labeled ascending fibers projecting into the adjacent segment of cord, over number of cords examined", "result": "2/12"},
      {"measurement": "Ascending fibers, Zone 3: proportion of cords", "setting": "[1]; rhodamine-labeled ascending fibers terminating at the plane of transection, over number of cords examined", "result": "7/12"},
      {"measurement": "Ascending fibers, Zone 1 >250: cords with labeled fibers", "setting": "[1]; rhodamine-labeled ascending fibers terminating more than 250 μm from the plane of transection, chronic SCI", "result": 12},
      {"measurement": "Ascending fibers, Zone 2 <250: proportion of cords", "setting": "[1]; rhodamine-labeled ascending fibers within 250 μm of the plane of transection, over number of cords examined", "result": "10/12"},
      {"measurement": "axonal outgrowth", "setting": "[2]", "result": "stimulating axonal outgrowth"},
      {"measurement": "percent recovery of the CTM receptive field (mean)", "setting": "[3]; at the end of the study, chronic SCI, P=0.5 between groups (Mann Whitney)", "result": "23.5±3.6", "unit": "%"},
      {"measurement": "animals that recovered some amount of CTM behavior", "setting": "[3]; chronic SCI treated about 3 months after hemisection, inosine 10 mM s.c. osmotic pump 14 days, with or without OFS 4 weeks, 15 inosine, 16 inosine+OFS animals, none of 15 controls recovered", "result": 11, "unit": "animals"}
    ]},
    {"smiles": "Nc1nc2c(ncn2[C@@H]2O[C@H](CO)[C@@H](O)[C@H]2O)c(=O)[nH]1", "note": "[guanosine]", "values": [
      {"measurement": "axonal outgrowth", "setting": "[2]", "result": "stimulating axonal outgrowth"}
    ]}
  ]
}
